In US20230021329A1, “NANOSTRUCTURED BINARY GEL COMPOSITION AND USE THEREOF” (Veri Nano Inc., priority 2019, published 2023):

Assay: Release study of agents from the gel
Format: physicochemical
[1] = release from hydrogel composition #4, 10 h in PBS

Protocol: 25 ml of PBS was added to each of the beakers. The beakers were put on a plate shaker (Delfia 1296-004) and shaken at the “low” setting for 10 h. The liquid was centrifuged at 21130 rcf for 10 min, and the supernatants were taken for analysis.
BSA Protein release from the nanoparticles was quantified via nanodrop spectrophotometer to determine the concentration of protein in the supernatant, after creating a nanoparticle pellet on centrifugation, all these after 10 hours of incubation in PBS at room temperature.
The concentration released of the Rhodamine B was determined by talking the supernatant after 10 h, centrifuged and diluted the solution by 10×. Subsequently, the absorbance was measured by using a plate reader (Varioskan Lux) and compared to a calibration curve.

- amount released [1]: 6.3 mg
- percent release [1]: 5.7%
- concentration in supernatant (release from hydrogel composition #4, supernatant after 10 h, absorbance vs calibration curve): 252 μ/ml
SMILES: CCN(CC)c1ccc2c(-c3ccccc3C(=O)O)c3ccc(=[N+](CC)CC)cc-3oc2c1.[Cl-] [Rhodamine B]
